One experiment deals with adrenergic β2 receptor (Homo sapiens (Human), UniProt P07550). As to the kind of experiment: Adrenergic β2 receptor cAMP secondary messenger antagonist assay. The format is cell-based. From the text: This assay used a panel of CHO-K1 cell lines stably expressing non-tagged GPCRs that endogenously signal through cAMP. Hit Hunter® cAMP assays monitored the activation of a GPCR via Gi and Gs secondary messenger signaling in a homogenous, non-imaging assay format using DiscoverX Enzyme Fragment Complementation (EFC) with β-galactosidase as the functional endpoint.
Sequence of adrenergic β2 receptor (P07550 whole entry, looked up, the tested form may be a part): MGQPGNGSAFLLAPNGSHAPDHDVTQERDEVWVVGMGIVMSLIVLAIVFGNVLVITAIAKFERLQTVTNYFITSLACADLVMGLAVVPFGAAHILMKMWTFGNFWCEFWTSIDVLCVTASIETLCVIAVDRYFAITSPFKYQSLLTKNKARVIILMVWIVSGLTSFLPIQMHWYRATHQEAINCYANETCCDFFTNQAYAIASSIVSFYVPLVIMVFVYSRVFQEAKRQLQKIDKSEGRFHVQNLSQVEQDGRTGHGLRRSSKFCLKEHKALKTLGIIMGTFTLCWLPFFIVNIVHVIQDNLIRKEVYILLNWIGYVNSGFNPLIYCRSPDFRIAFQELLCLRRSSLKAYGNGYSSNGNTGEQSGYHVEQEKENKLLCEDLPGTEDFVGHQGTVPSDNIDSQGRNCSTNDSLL
The enzyme was split into two complementary portions: Enzyme Acceptor (EA) and Enzyme Donor (ED). In the assay, exogenously introduced ED fused to cAMP (ED-cAMP) competed with endogenously generated cAMP for binding to an anti-cAMP-specific antibody. […] Active enzyme could then convert a chemiluminescent substrate, generating an output signal detectable on a standard microplate reader.
Cell lines were expanded from freezer stocks according to standard procedures. Cells were seeded in a total volume of 20 μL into white walled, 384-well microplates and incubated at 37° C. for the appropriate time prior to testing. cAMP modulation was determined using the DiscoverX HitHunter cAMP XS+ assay. […]
Compound activity was analyzed using CBIS data analysis suite (ChemInnovation, CA). For Gs antagonist mode assays, percentage inhibition was calculated as 100%×(1−(mean RLU of test sample−mean RLU of vehicle control)/(mean RLU of EC80 control−mean RLU of vehicle control)).

In experiment [1] the target is Nicotinic Acetylcholine Receptor α4β2 (nAchRa4/b2) (Homo sapiens (Human), UniProt P17787+P43681). As to the kind of experiment: Nicotinic acetylcholine receptor α4β2 ion channel blocking assay. The format is cell-based. The method, then:
Cell lines were expanded from freezer stocks according to standard procedures. Cells were seeded in a total volume of 20 μL into black-walled, clear-bottom, Poly-D-lysine coated 384-well microplates and incubated at 37° C. for the appropriate time prior to testing.
Assays were performed in 1×Dye Loading Buffer consisting of 1×Dye, and 2.5 mM freshly-prepared Probenecid when applicable.
Test compounds were assayed at 10 concentrations with the highest concentration either 30 or 10 μM and subsequent concentrations using a 0.33 dilution factor.
Prior to testing, cells were loaded with dye then incubated for 30-60 minutes at 37° C. For antagonist determination, cells were pre-incubated with sample. Dihydro-β-erythroidine was used as a positive control. Intermediate dilution of sample stocks was performed to generate 2-5×sample in assay buffer.
After dye loading, cells were moved from the incubator and 10-25 μL 2-5×sample was added to cells in the presence of EC80 agonist when appropriate. Cells were incubated for 30 minutes at room temperature in the dark to equilibrate plate temperature. Vehicle concentration was 1%.
Compound activity was measured on a FLIPRTetra(MDS) and analyzed using CBIS data analysis suite (ChemInnovation, CA). Percentage inhibition was calculated using the following formula: % Inhibition=100%×(1−(mean RLU of test sample−mean RLU of vehicle control)/(mean RLU of EC80 control−mean RLU of vehicle control)).

Usually IC50 stands for the concentration that gives 50% inhibition. Low values mean greater potency in that assay, high ones weaker potency in that assay.

Sequence of Nicotinic Acetylcholine Receptor α4β2 (nAchRa4/b2) (P43681 29-627 limits assumed): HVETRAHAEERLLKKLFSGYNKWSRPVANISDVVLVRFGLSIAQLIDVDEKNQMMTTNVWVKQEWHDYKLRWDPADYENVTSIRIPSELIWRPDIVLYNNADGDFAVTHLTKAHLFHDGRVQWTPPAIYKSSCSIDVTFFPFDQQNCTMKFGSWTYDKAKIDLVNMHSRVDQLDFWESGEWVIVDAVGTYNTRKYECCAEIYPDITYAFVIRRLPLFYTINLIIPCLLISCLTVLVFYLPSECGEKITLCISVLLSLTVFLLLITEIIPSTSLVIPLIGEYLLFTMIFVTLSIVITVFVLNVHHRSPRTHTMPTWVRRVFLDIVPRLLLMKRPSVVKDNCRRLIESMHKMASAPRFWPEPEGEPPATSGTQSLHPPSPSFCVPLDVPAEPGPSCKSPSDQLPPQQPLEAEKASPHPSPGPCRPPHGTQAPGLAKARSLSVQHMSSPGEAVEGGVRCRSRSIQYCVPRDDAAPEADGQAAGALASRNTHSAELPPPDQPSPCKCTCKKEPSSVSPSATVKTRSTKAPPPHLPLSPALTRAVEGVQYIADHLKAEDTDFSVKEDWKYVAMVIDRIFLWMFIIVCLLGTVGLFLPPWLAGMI
Sequence of Nicotinic Acetylcholine Receptor α4β2 (nAchRa4/b2) (P17787 26-502 limits assumed): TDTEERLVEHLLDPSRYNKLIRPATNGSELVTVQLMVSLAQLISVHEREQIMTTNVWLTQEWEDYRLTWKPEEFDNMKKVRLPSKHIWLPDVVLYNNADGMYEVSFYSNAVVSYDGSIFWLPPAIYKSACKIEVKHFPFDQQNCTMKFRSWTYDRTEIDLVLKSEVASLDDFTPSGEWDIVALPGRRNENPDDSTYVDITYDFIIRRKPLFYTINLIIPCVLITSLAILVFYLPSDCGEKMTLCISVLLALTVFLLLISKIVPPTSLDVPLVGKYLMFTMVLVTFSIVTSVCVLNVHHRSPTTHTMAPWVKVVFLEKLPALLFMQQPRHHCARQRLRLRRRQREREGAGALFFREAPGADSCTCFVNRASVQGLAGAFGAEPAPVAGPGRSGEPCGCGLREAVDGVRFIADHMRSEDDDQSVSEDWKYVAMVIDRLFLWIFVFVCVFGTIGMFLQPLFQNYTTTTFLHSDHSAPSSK

For the compound `CN[C@H](C)Cc1ccc2ccoc2c1` [Compound R-6-MAPB, (R)-1-(benzofuran-6-yl)-N-methylpropan-2-amine], the IC50 at adrenergic β2 receptor was found to be 4.06 µM; in experiment [1], 7.41 µM.

Source of the values: US11767305B2, “Advantageous benzofuran compositions for mental disorders or enhancement” (Tactogen Inc, priority 2020, dated 2023).
